Reference: ChEMBL document CHEMBL1141035, “Synthesis and antidepressant activity of some 1,3,5-triphenyl-2-pyrazolines and 3-(2''-hydroxy naphthalen-1''-yl)-1,5-diphenyl-2-pyrazolines” (2005)
“And” between values parts separate entries of the source, which are not always exact repeats. Identical values can stand only once.

How the values were obtained:
Mus musculus [1] = test: Antidepressant activity determined by duration of immobility after intraperitoneal administration at 100 mg/kg in mice; type: functional
Mus musculus [2] = test: Antidepressant activity determined by percentage change from control after intraperitoneal administration at 100 mg/kg in mice; n = 6; type: functional

## CN(C)c1ccc(C2CC(c3ccccc3)=NN2c2ccccc2)cc1 (stereo unspecified)
Mus musculus [1]
  Activity: 22.95 s
Mus musculus [2]
  Activity: -59.25%

## Oc1ccc2ccccc2c1C1=NN(c2ccccc2)C(c2ccccc2)C1 (stereo unspecified)
Mus musculus [1]
  Activity: 50.33 s
Mus musculus [2]
  Activity: -10.63%

## COc1cc(C2CC(c3c(O)ccc4ccccc34)=NN2c2ccccc2)cc(OC)c1OC (stereo unspecified)
Mus musculus [1]
  Activity: 49.26 s
Mus musculus [2]
  Activity: -12.53%

## Oc1ccc(C2=NN(c3ccccc3)C(c3cccc(Br)c3)C2)cc1 (stereo unspecified)
Mus musculus [1]
  Activity: 32.46 s
Mus musculus [2]
  Activity: -42.18%

## CN(C)c1ccc(C2CC(c3ccccc3O)=NN2c2ccccc2)cc1 (stereo unspecified)
Mus musculus [1]
  Activity: 35.85 s
Mus musculus [2]
  Activity: -36.34%

## Cc1ccc(C2=NN(c3ccccc3)C(c3ccc(N(C)C)cc3)C2)cc1 (stereo unspecified)
Mus musculus [1]
  Activity: 50.15 s
Mus musculus [2]
  Activity: -10.95%

## Oc1ccc2ccccc2c1C1=NN(c2ccccc2)C(c2ccc(Br)cc2)C1 (stereo unspecified)
Mus musculus [1]
  Activity: 25.4 s
Mus musculus [2]
  Activity: -54.1%

## Oc1ccc2ccccc2c1C1=NN(c2ccccc2)C(c2ccc(Cl)cc2)C1 (stereo unspecified)
Mus musculus [1]
  Activity: 46.28 s
Mus musculus [2]
  Activity: -17.82%

## COc1ccc(C2CC(c3c(O)ccc4ccccc34)=NN2c2ccccc2)cc1 (stereo unspecified)
Mus musculus [1]
  Activity: 50.78 s
Mus musculus [2]
  Activity: -9.83%

## CN(C)c1ccc(C2CC(c3ccc(Br)cc3)=NN2c2ccccc2)cc1 (stereo unspecified)
Mus musculus [1]
  Activity: 41.88 s
Mus musculus [2]
  Activity: -25.63%

## CN(C)CCCN1c2ccccc2CCc2ccc(Cl)cc21 [CLOMIPRAMINE]
Mus musculus [1]; 100 mg/kg
  Activity: 33.81 s and 18.68 s
